Test results published in patent US12071441B2, “10-(di(phenyl)methyl)-4-hydroxy-8,9,9A,10-tetrahydro-7H-pyrrolo[1′,2′:4,5]pyrazino[1,2-b]pyridazine-3,5-dione derivatives and related compounds as inhibitors of the orthomyxovirus replication for treating influenza” (Novartis AG, priority 2018, dated 2024).

Columns and labels:
Assay in all cases: microbe, parasite or virus in culture
Type in all cases: cell-based
[1] = system: influenza A virus minigenome (PB2, PB1, PA, NP; luciferase reporter) in 293T cells, RNP_Alaska; details: HEK-293T, 48 h
[2] = system: influenza A virus minigenome (PB2, PB1, PA, NP; luciferase reporter) in 293T cells, RNP_CAL; details: HEK-293T, 48 h, read-out: RNP_CAL_EC50
[3] = system: influenza A virus minigenome (PB2, PB1, PA, NP; luciferase reporter) in 293T cells, RNP_Hubei; details: HEK-293T, 48 h

SMILES	EC50 [1] [nM]	EC50 [2] [nM]	EC50 [3] [nM]
COc1ccccc1[C@H](c1ccc(F)cc1)[C@H]1[C@H]2CCCN2C(=O)c2c(O)c(=O)cnn21 [Example 6, (9aR,10S)-10-((S)-(4-fluorophenyl)(2-methoxyphenyl)methyl)-4-hydroxy-8,9,9a,10-tetrahydro-7H-pyrrolo[1′,2′:4,5]pyrazino[1,2-b]pyridazine-3,5-dione]	100 to 1000	100 to 1000	100 to 1000
COc1ccc([C@H](c2ccc(F)cc2)[C@H]2[C@H]3CCCN3C(=O)c3c(O)c(=O)cnn32)cc1 [Example 7, (9aR,10S)-10-((R)-(4-fluorophenyl)(4-methoxyphenyl)methyl)-4-hydroxy-8,9,9a,10-tetrahydro-7H-pyrrolo[1′,2′:4,5]pyrazino[1,2-b]pyridazine-3,5-dione]	100 to 1000	100 to 1000	100 to 1000
O=C1c2c(O)c(=O)cnn2[C@@H]([C@H](c2ccccc2F)c2cccc(F)c2F)[C@H]2CCCN12 [Example 8, (9aR,10S)-10-((R)-(2,3-difluorophenyl)(2-fluorophenyl)methyl)-4-hydroxy-8,9,9a,10-tetrahydro-7H-pyrrolo[1′,2′:4,5]pyrazino[1,2-b]pyridazine-3,5-dione]	< 100	< 100	< 100
COc1cccc([C@H](c2ccc(F)cc2)[C@H]2[C@H]3CCCN3C(=O)c3c(O)c(=O)cnn32)c1 [Example 9, (9aR,10S)-10-((S)-(4-fluorophenyl)(3-methoxyphenyl)methyl)-4-hydroxy-8,9,9a,10-tetrahydro-7H-pyrrolo[1′,2′:4,5]pyrazino[1,2-b]pyridazine-3,5-dione]	100 to 1000	100 to 1000	< 100
Cc1cccc([C@H](c2ccc(F)cc2)[C@H]2[C@H]3CCCN3C(=O)c3c(O)c(=O)cnn32)c1 [Example 10, (9aR,10S)-10-((S)-(4-fluorophenyl)(m-tolyl)methyl)-4-hydroxy-8,9,9a,10-tetrahydro-7H-pyrrolo[1′,2′:4,5]pyrazino[1,2-b]pyridazine-3,5-dione]	< 100	< 100	< 100
Cc1c([C@@H](c2cccc(F)c2)[C@H]2[C@H]3CCCN3C(=O)c3c(O)c(=O)cnn32)ccc(F)c1F [Example 11, (9aR,10S)-10-((R)-(3,4-difluoro-2-methylphenyl)(3-fluorophenyl)methyl)-4-hydroxy-8,9,9a,10-tetrahydro-7H-pyrrolo[1′,2′:4,5]pyrazino[1,2-b]pyridazine-3,5-dione]	< 100	< 100	< 100
Cc1cccc([C@@H](c2cccc(F)c2)[C@H]2[C@H]3CCCN3C(=O)c3c(O)c(=O)cnn32)c1F [Example 12, (9aR,10S)-10-((R)-(2-fluoro-3-methylphenyl)(3-fluorophenyl)methyl)-4-hydroxy-8,9,9a,10-tetrahydro-7H-pyrrolo[1′,2′:4,5]pyrazino[1,2-b]pyridazine-3,5-dione]	100 to 1000	100 to 1000	100 to 1000
O=C1c2c(O)c(=O)cnn2[C@@H](C(c2cccc(F)c2)c2cccc(F)c2)[C@H]2CC(F)(F)CN12 [Example 13, (9aR,10S)-10-(bis(3-fluorophenyl)methyl)-8,8-difluoro-4-hydroxy-8,9,9a,10-tetrahydro-7H-pyrrolo[1′,2′:4,5]pyrazino[1,2-b]pyridazine-3,5-dione]	≥ 1000	≥ 1000	100 to 1000
O=C1c2c(O)c(=O)cnn2[C@@H]([C@H](c2ccccc2)c2cccc(F)c2F)[C@@H]2COCCN12 [Example 14, (10aR,11S)-11-((R)-(2,3-difluorophenyl)(phenyl)methyl)-4-hydroxy-7,8,10a,11-tetrahydro-10H-pyridazino[1′,6′:4,5]pyrazino[2,1-c][1,4]oxazine-3,5-dione]	< 100	< 100	< 100
Cc1c(F)cccc1[C@@H](c1cccc(F)c1)[C@H]1[C@H]2CCCN2C(=O)c2c(O)c(=O)cnn21 [Example 15, (9aR,10S)-10-((R)-(3-fluoro-2-methylphenyl)(3-fluorophenyl)methyl)-4-hydroxy-8,9,9a,10-tetrahydro-7H-pyrrolo[1′,2′:4,5]pyrazino[1,2-b]pyridazine-3,5-dione]	< 100	< 100	< 100
O=C1c2c(O)c(=O)cnn2[C@@H]([C@H](c2ccccc2)c2c(F)ccc(F)c2F)[C@H]2CCCN12 [Example 16, (9aR,10S)-4-hydroxy-10-((R)-phenyl(2,3,6-trifluorophenyl)methyl)-8,9,9a,10-tetrahydro-7H-pyrrolo[1′,2′:4,5]pyrazino[1,2-b]pyridazine-3,5-dione]	< 100	< 100	< 100
Cc1ccccc1[C@H](c1cccc(C)c1F)[C@H]1[C@H]2CCCN2C(=O)c2c(O)c(=O)cnn21 [Example 17, (9aR,10S)-10-((R)-(2-fluoro-3-methylphenyl)(o-tolyl)methyl)-4-hydroxy-8,9,9a,10-tetrahydro-7H-pyrrolo[1′,2′:4,5]pyrazino[1,2-b]pyridazine-3,5-dione]	100 to 1000	100 to 1000	< 100
Cc1c(F)cccc1[C@@H](c1ccc(F)cc1)[C@H]1[C@H]2CCCN2C(=O)c2c(O)c(=O)cnn21 [Example 18, (9aR,10S)-10-((R)-(3-fluoro-2-methylphenyl)(4-fluorophenyl)methyl)-4-hydroxy-8,9,9a,10-tetrahydro-7H-pyrrolo[1′,2′:4,5]pyrazino[1,2-b]pyridazine-3,5-dione]	< 100	< 100	< 100
Cc1c(F)cccc1[C@@H](c1ccccc1)[C@H]1[C@H]2CCCN2C(=O)c2c(O)c(=O)cnn21 [Example 19, (9aR,10S)-10-((R)-(3-fluoro-2-methylphenyl)(phenyl)methyl)-4-(|1-oxidanyl)-8,9,9a,10-tetrahydro-7H-pyrrolo[1′,2′:4,5]pyrazino[1,2-b]pyridazine-3,5-dione]	< 100	< 100	< 100
O=C1c2c(O)c(=O)cnn2[C@@H]([C@H](c2ccc(F)cc2)c2cccc(C(F)(F)F)c2)[C@H]2CCCN12 [Example 20, (9aR,10S)-10-((R)-(4-fluorophenyl)(3-(trifluoromethyl)phenyl)methyl)-4-hydroxy-8,9,9a,10-tetrahydro-7H-pyrrolo[1′,2′:4,5]pyrazino[1,2-b]pyridazine-3,5-dione]	100 to 1000	100 to 1000	100 to 1000
O=C1c2c(O)c(=O)cnn2[C@@H]([C@H](c2ccc(F)cc2)c2ccc(C(F)(F)F)cc2)[C@H]2CCCN12 [Example 21, (9aR,10S)-10-((S)-(4-fluorophenyl)(4-(trifluoromethyl)phenyl)methyl)-4-hydroxy-8,9,9a,10-tetrahydro-7H-pyrrolo[1′,2′:4,5]pyrazino[1,2-b]pyridazine-3,5-dione]	100 to 1000	100 to 1000	100 to 1000
O=C1c2c(O)c(=O)cnn2[C@@H]([C@H](c2ccc(F)cc2)c2cccc(OC(F)(F)F)c2)[C@H]2CCCN12 [Example 22, (9aR,10S)-10-((R)-(4-fluorophenyl)(3-(trifluoromethoxy)phenyl)methyl)-4-hydroxy-8,9,9a,10-tetrahydro-7H-pyrrolo[1′,2′:4,5]pyrazino[1,2-b]pyridazine-3,5-dione]	100 to 1000	100 to 1000	100 to 1000
O=C1c2c(O)c(=O)cnn2[C@@H]([C@H](c2ccc(F)cc2)c2ccc(OC(F)(F)F)cc2)[C@H]2CCCN12 [Example 23, (9aR,10S)-10-((S)-(4-fluorophenyl)(4-(trifluoromethoxy)phenyl)methyl)-4-hydroxy-8,9,9a,10-tetrahydro-7H-pyrrolo[1′,2′:4,5]pyrazino[1,2-b]pyridazine-3,5-dione]	≥ 1000	100 to 1000	100 to 1000
COc1cccc([C@@H](c2ccc(F)cc2)[C@H]2[C@H]3CCCN3C(=O)c3c(O)c(=O)cnn32)c1 [Example 24, (9aR,10S)-10-((R)-(4-fluorophenyl)(3-methoxyphenyl)methyl)-4-hydroxy-8,9,9a,10-tetrahydro-7H-pyrrolo[1′,2′:4,5]pyrazino[1,2-b]pyridazine-3,5-dione]	100 to 1000	100 to 1000	100 to 1000
COc1ccccc1[C@@H](c1ccc(F)cc1)[C@H]1[C@H]2CCCN2C(=O)c2c(O)c(=O)cnn21 [Example 25, (9aR,10S)-10-((R)-(4-fluorophenyl)(2-methoxyphenyl)methyl)-4-hydroxy-8,9,9a,10-tetrahydro-7H-pyrrolo[1′,2′:4,5]pyrazino[1,2-b]pyridazine-3,5-dione]	100 to 1000	100 to 1000	100 to 1000
COc1ccc([C@@H](c2ccc(F)cc2)[C@H]2[C@H]3CCCN3C(=O)c3c(O)c(=O)cnn32)cc1 [Example 26, (9aR,10S)-10-((S)-(4-fluorophenyl)(4-methoxyphenyl)methyl)-4-hydroxy-8,9,9a,10-tetrahydro-7H-pyrrolo[1′,2′:4,5]pyrazino[1,2-b]pyridazine-3,5-dione]	100 to 1000	100 to 1000	100 to 1000
O=C1c2c(O)c(=O)cnn2[C@@H]([C@@H](c2ccc(F)c(F)c2)c2cccc(F)c2F)[C@H]2CCCN12 [Example 27, (9aR,10S)-10-((S)-(2,3-difluorophenyl)(3,4-difluorophenyl)methyl)-4-hydroxy-8,9,9a,10-tetrahydro-7H-pyrrolo[1′,2′:4,5]pyrazino[1,2-b]pyridazine-3,5-dione]	100 to 1000	< 100	< 100
O=C1c2c(O)c(=O)cnn2[C@@H]([C@@H](c2ccccc2F)c2cccc(F)c2F)[C@H]2CCCN12 [Example 28, (9aR,10S)-10-((S)-(2,3-difluorophenyl)(2-fluorophenyl)methyl)-4-hydroxy-8,9,9a,10-tetrahydro-7H-pyrrolo[1′,2′:4,5]pyrazino[1,2-b]pyridazine-3,5-dione]	< 100	< 100	< 100
